Read-outs that look alike come from different tables or passages of the source.

One test has as its target CYP2C8 (Homo sapiens, UniProt P10632). Briefly: Inhibition of CYP2C8-catalyzed amodiaquine N-deethylase in ultrapooled human liver microsomes. Type of test: in vitro ADME. How it is done:
(§1) The inhibitory potentials (IC50 values) of APINACA and typical CYP inhibitors on CYP 1A2, 2A6, 2C8, 2C9, 2C19, 2D6, and 3A4 activities in pooled human liver microsomes were evaluated following our previous method using a cocktail of CYP substrates, followed by LC–MS/MS [43]. […] After 3 min of preincubation at 37 °C, the reaction mixtures were incubated for 15 min at 37 °C with the addition of NADPH in a shaking water bath. The reaction was stopped by adding 100 μL of ice cold methanol containing internal standards (d9-1′-hydroxybufuralol for 1′-hydroxybufuralol, 4′-hydroxydiclofenac, 7-hydroxycoumarin, 1′-hydroxymidazolam, and 4′-hydroxymephenytoin; ^13C2, ^15N-acetaminophen for acetaminophen and N-desethylamodiaquine). The incubation mixtures were centrifuged at 13,000× g for 8 min at 4 °C, and 50 μL of each supernatant was diluted with 50 μL of water. Aliquots (5 μL) of the diluted supernatants were analyzed by LC–MS/MS. All assays were performed in triplicate, and the average values were used for subsequent calculations.
(§2) To measure the time-dependent inhibition, human liver microsomes were preincubated with the various concentrations of APINACA (final concentrations of 0.1−100 μM) and NADPH for 30 min at 37 °C. Next, the reaction mixtures were incubated with a seven-CYP probe substrate cocktail or bupropion for 15 min at 37 °C. […]

Another test addresses CYP2C19 (Homo sapiens, UniProt P33261). Briefly: Inhibition of CYP2C19-mediated [S]-mephenytoin 4′-hydroxylase in ultrapooled human liver microsomes. Type of test: in vitro ADME. The procedure: as §1, §2
For orientation: Microsomes from liver hold many membrane-bound enzymes, among them those of drug oxidation.

A further test addresses UGT1A3 (Homo sapiens, UniProt P35503). The test is described as follows: Inhibition of UGT1A3-catalyzed chenodeoxycholic acid 24-acyl-β-glucuronidation in human liver microsomes. Type of test: in vitro ADME.
The next test has as its target UGT1A6 (Homo sapiens, UniProt P19224). The test is described as follows: Inhibition of UGT1A6-catalyzed N-acetylserotonin glucuronidation in human liver microsomes. How it is done: The inhibitory effect of APINACA and typical UGT inhibitors on UGT1A1, UGT1A3, UGT1A4, UGT1A6, UGT1A9, and UGT2B7 were evaluated following our previous method by LC–MS/MS after incubation of ultrapooled human liver microsomes with a cocktail of UGT substrates. […] The reactions were initiated by adding UDPGA, and the incubation continued for 60 min at 37 °C in a shaking water bath. The reactions were terminated by adding 50 μL of ice-cold acetonitrile containing internal standards (propofol glucuronide for chenodeoxycholic acid 24-acyl-β-glucuronide and mycophenolic acid glucuronide; and meloxicam for SN-38 glucuronide, trifluoperazine glucuronide, N-acetylserotonin β-D-glucuronide, and naloxone 3-β-D-glucuronide). The incubation mixtures were centrifuged at 13,000× g for 8 min at 4 °C. Next, 50 μL of each supernatant of A and B set was mixed, and aliquots (5 μL) were analyzed by LC–MS/MS. All assays were performed in triplicate, and the average values were used in calculations.
To measure the time-dependent inhibition, human liver microsomes were preincubated with the various concentrations of APINACA (final concentrations of 0.1–100 μM) and UDPGA for 30 min at 37 °C. Next, the reaction mixtures were incubated with UGT probe substrate cocktail sets for 60 min at 37 °C. The control reaction was performed by adding methanol instead of the test compounds.
1.1 (Systat Software, Inc.).

In another test the target is T1, OATP1B1 (Homo sapiens, UniProt Q9Y6L6).
T1 construct: host or cells: HEK293 (transient overexpression)
T1 sequence (Q9Y6L6 1-691): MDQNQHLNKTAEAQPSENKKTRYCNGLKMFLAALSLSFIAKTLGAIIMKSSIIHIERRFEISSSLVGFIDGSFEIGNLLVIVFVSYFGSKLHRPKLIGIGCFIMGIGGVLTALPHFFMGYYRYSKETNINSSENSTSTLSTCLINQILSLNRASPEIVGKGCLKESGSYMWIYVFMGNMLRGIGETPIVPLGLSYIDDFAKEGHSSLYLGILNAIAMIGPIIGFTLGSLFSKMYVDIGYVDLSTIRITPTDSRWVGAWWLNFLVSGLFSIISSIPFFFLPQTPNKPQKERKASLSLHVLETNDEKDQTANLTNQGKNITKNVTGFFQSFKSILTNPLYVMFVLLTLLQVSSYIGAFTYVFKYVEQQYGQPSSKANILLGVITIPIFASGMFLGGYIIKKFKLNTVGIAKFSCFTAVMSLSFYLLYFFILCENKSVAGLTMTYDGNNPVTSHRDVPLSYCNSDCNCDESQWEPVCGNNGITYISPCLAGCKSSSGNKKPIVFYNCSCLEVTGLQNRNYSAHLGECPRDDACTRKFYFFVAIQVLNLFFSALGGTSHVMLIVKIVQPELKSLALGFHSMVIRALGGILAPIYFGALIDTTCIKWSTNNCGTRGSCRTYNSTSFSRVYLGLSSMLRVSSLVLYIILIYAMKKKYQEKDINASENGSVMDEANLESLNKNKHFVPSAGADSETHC
Briefly: Uptake of [3-H]estrone-3-sulfate in HEK293-OATP1B1 cells. It counts as in vitro ADME. The procedure: To examine the effects of APINACA and typical inhibitors on transporter activity, the uptake of a probe substrate into HEK293 cells overexpressing the respective solute carrier transporters was measured in the presence of APINACA (final concentrations of 0–250 μM) or typical inhibitors for 5 min. The concentrations and probe substrates were selected as follows: 0.1 μM [3-H]MPP^+ (for OCT1 and OCT2), 0.1 μM [3-H]PAH (for OAT1), 0.1 μM [3-H]ES (for OAT3 and OATP1B1), and 0.1 μM [3-H]EG (for OATP1B3).
12.5 (Systat Software, Inc.; San Jose, CA, USA). […] 1.1 (Systat Software, Inc.).

Chain of CYP2C19 (P33261 whole entry): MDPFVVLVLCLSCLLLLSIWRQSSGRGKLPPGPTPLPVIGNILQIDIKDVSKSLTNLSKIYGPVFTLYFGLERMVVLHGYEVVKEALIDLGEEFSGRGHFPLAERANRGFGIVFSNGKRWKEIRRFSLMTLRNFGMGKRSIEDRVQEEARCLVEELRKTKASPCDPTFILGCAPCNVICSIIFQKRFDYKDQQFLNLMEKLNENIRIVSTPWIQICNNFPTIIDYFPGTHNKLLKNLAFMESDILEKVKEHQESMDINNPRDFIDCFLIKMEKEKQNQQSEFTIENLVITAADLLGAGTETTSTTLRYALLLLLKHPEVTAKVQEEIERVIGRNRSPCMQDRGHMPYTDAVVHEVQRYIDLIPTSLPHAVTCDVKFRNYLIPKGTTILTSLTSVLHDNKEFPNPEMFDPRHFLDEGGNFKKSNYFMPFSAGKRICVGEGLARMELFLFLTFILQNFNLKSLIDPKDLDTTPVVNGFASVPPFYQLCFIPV
Chain of UGT1A6 (P19224 27-532): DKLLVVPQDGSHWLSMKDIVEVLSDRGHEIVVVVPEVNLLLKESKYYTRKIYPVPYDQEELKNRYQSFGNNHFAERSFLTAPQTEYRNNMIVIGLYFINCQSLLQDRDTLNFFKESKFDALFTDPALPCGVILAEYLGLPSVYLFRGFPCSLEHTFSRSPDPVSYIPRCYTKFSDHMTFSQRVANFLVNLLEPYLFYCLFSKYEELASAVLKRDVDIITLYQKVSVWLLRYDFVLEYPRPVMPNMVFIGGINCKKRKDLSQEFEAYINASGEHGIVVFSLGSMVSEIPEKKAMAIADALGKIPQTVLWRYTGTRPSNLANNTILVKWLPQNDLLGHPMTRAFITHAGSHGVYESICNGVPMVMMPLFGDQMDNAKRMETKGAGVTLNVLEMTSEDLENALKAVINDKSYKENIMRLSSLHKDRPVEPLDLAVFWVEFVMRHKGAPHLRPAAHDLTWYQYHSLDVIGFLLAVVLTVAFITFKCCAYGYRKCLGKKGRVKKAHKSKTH
Chain of UGT1A3 (P35503 29-534): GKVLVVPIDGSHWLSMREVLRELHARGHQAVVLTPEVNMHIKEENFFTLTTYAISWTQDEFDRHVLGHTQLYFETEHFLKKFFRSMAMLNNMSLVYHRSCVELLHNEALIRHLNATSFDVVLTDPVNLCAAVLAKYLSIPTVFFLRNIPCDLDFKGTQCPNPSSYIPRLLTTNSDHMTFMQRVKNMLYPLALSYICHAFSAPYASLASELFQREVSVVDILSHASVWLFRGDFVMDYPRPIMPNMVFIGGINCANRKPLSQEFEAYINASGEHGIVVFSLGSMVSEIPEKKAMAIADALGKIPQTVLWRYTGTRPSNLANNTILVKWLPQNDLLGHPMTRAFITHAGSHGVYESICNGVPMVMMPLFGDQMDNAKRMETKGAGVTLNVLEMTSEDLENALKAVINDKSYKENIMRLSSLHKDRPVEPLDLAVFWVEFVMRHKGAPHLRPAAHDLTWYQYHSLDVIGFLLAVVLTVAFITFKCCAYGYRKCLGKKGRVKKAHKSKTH
Chain of CYP2C8 (P10632 whole entry): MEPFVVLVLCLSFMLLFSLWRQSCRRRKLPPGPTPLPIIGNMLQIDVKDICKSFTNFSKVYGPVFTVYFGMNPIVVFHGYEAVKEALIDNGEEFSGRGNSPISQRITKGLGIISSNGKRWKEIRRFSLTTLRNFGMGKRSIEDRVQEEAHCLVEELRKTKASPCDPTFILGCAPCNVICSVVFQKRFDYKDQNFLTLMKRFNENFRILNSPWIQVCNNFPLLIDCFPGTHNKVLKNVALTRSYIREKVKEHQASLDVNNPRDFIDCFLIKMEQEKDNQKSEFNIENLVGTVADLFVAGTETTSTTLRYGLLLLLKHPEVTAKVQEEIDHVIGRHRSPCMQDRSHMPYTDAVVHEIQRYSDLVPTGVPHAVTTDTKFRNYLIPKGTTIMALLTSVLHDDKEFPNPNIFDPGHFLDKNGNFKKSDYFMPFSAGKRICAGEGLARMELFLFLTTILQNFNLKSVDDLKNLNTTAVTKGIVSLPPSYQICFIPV
Experimental for UGT1A3: The inhibitory effect of APINACA and typical UGT inhibitors on UGT1A1, UGT1A3, UGT1A4, UGT1A6, UGT1A9, and UGT2B7 were evaluated following our previous method by LC–MS/MS after incubation of ultrapooled human liver microsomes with a cocktail of UGT substrates [44]. […] The reactions were initiated by adding UDPGA, and the incubation continued for 60 min at 37 °C in a shaking water bath. The reactions were terminated by adding 50 μL of ice-cold acetonitrile containing internal standards (propofol glucuronide for chenodeoxycholic acid 24-acyl-β-glucuronide and mycophenolic acid glucuronide; and meloxicam for SN-38 glucuronide, trifluoperazine glucuronide, N-acetylserotonin β-D-glucuronide, and naloxone 3-β-D-glucuronide). The incubation mixtures were centrifuged at 13,000× g for 8 min at 4 °C. Next, 50 μL of each supernatant of A and B set was mixed, and aliquots (5 μL) were analyzed by LC–MS/MS. All assays were performed in triplicate, and the average values were used in calculations.

One may read the IC50 as the concentration that gives 50% inhibition. Take `CCCCCn1nc(C(=O)NC23CC4CC(CC(C4)C2)C3)c2ccccc21` [APINACA, N-(1-adamantyl)-1-pentyl-1H-indazole-3-carboxamide]: the IC50 was over 100 µM against CYP2C8; over 100 µM on CYP2C8 (read-out: IC50 (μM) With Preincubation, CYP2C8 amodiaquine N-deethylase, ultrapooled human liver microsomes, 30-min preincubation with NADPH); over 100 µM against CYP2C19; over 100 µM on CYP2C19 (read-out: IC50 (μM) With Preincubation, CYP2C19 [S]-mephenytoin 4′-hydroxylase, ultrapooled human liver microsomes, 30-min preincubation with NADPH); over 100 µM against UGT1A3; over 100 µM at UGT1A3 (read-out: IC50 UGT1A3 chenodeoxycholic acid glucuronidation, with 30-min preincubation, pooled human liver microsomes, 30-min preincubation with UDPGA (○)). The IC50 against UGT1A6 was over 100 µM; at UGT1A6 (read-out: IC50 UGT1A6 N-acetylserotonin glucuronidation, with 30-min preincubation, pooled human liver microsomes, 30-min preincubation with UDPGA (○)) it was over 100 µM; at OATP1B1, over 250 µM.

The record behind these values is publication PMC6720883, “In Vitro Inhibitory Effects of APINACA on Human Major Cytochrome P450, UDP-Glucuronosyltransferase Enzymes, and Drug Transporters” (Molecules, 2019).
